Among the data in PubChem BioAssay (NCI) are TGI and GI50 values, retold here.

Test systems include CCRF-CEM leukemia; UO-31 renal; NCI-H23 lung; OVCAR-8 ovarian; HOP-92 NSCLC; NCI/ADR-RES ovarian; NCI-H522 lung; RPMI-8226 leukemia; SF-268 CNS; OVCAR-3 ovarian.
Holding throughout (test): growth of human tumour cells (NCI), 48 h

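Growth conditions: 96-well plates. Treatment: test compound, 48 hours, 5 concentrations. Analysis: linear interpolation between bracketing concentrations; unreached endpoints set to highest concentration. GI50: concentration for 50% inhibition of growth. TGI: concentration producing complete growth inhibition.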

For `c1cc2n(n1)CCN2`, the TGI in the assay with CCRF-CEM leukemia was 6680 µM; with UO-31 renal it was 9890 µM; in the assay with NCI-H23 lung it was 6720 µM; with OVCAR-8 ovarian it was more than 9400 µM; in the assay with HOP-92 NSCLC it was more than 10000 µM; with NCI/ADR-RES ovarian it was 6590 µM. Also, the TGI was more than 7740 µM in the assay on NCI-H522 lung, more than 10000 µM in the assay on RPMI-8226 leukemia, 8200 µM in the assay with SF-268 CNS and more than 10000 µM in the assay on OVCAR-3 ovarian.
With `COc1cc(Nc2c(C#N)cnc3cc(OCCCN4CCN(C)CC4)c(OC)cc23)c(Cl)cc1Cl`, the GI50 in the assay with CCRF-CEM leukemia is 1.76 µM; in the assay with UO-31 renal, 0.687 µM; with NCI-H23 lung, 4.55 µM; with OVCAR-8 ovarian, 2.35 µM; with HOP-92 NSCLC it was 2.08 µM; in the assay on NCI/ADR-RES ovarian, 4.6 µM. Also, the GI50 is 0.393 µM with NCI-H522 lung, 5.32 µM with RPMI-8226 leukemia, 2.34 µM with SF-268 CNS and 2.78 µM with OVCAR-3 ovarian. In addition, the TGI in the assay on CCRF-CEM leukemia stood at 5.74 µM; in the assay with UO-31 renal, 7.75 µM; with NCI-H23 lung, 17.7 µM; in the assay with OVCAR-8 ovarian, 14.4 µM; in the assay on HOP-92 NSCLC, 10.5 µM; in the assay on NCI/ADR-RES ovarian it was 42.9 µM. The TGI worked out at 6.36 µM with NCI-H522 lung, 13.9 µM in the assay with RPMI-8226 leukemia, 10.3 µM in the assay with SF-268 CNS and 14.4 µM with OVCAR-3 ovarian.
For the compound `C=C1/C(=C\C=C2/CCC[C@]3(C)[C@@H]([C@H](C)CCCC(C)(C)O)CC[C@@H]23)C[C@@H](OC(=O)CBr)C[C@@H]1O`, the GI50 with CCRF-CEM leukemia is 0.0491 µM; in the assay on UO-31 renal, 0.155 µM; with NCI-H23 lung it was 0.386 µM; with OVCAR-8 ovarian, 2.12 µM; in the assay with HOP-92 NSCLC it was 0.138 µM; in the assay with NCI/ADR-RES ovarian, 1.95 µM. The GI50 with NCI-H522 lung was 0.255 µM; in the assay on RPMI-8226 leukemia, 0.293 µM; with SF-268 CNS, 2.26 µM; in the assay on OVCAR-3 ovarian it was 0.395 µM. Besides, the TGI with CCRF-CEM leukemia worked out at 0.307 µM; with UO-31 renal, 0.292 µM; in the assay with NCI-H23 lung, 2.31 µM; in the assay on OVCAR-8 ovarian it was 30.5 µM; in the assay on HOP-92 NSCLC, 0.445 µM; in the assay on NCI/ADR-RES ovarian, 18.7 µM. The TGI stood at 0.83 µM in the assay with NCI-H522 lung, 2.48 µM in the assay with RPMI-8226 leukemia, 6.1 µM in the assay on SF-268 CNS and 1.23 µM in the assay with OVCAR-3 ovarian.
For `CNCCCn1c2c(c3ccc([N+](=O)[O-])cc3c1=O)C(=O)c1cc(OC)cnc1-2`, the GI50 with CCRF-CEM leukemia was 0.0365 µM; with UO-31 renal it was 0.0341 µM; with NCI-H23 lung, 0.04 µM; in the assay on OVCAR-8 ovarian, 0.0861 µM; with HOP-92 NSCLC, 0.237 µM; in the assay with NCI/ADR-RES ovarian, 0.0613 µM. The GI50 in the assay on NCI-H522 lung is 0.0838 µM; in the assay with RPMI-8226 leukemia it was 0.0764 µM; in the assay on SF-268 CNS, 0.0685 µM; in the assay with OVCAR-3 ovarian, 0.174 µM. Further, the TGI came out at 0.625 µM with CCRF-CEM leukemia; 0.221 µM in the assay on UO-31 renal; 0.267 µM with NCI-H23 lung; 1.81 µM in the assay on OVCAR-8 ovarian; 2.44 µM in the assay with HOP-92 NSCLC; 1.08 µM with NCI/ADR-RES ovarian. Further, the TGI in the assay with NCI-H522 lung was 0.464 µM; in the assay with RPMI-8226 leukemia, 0.527 µM; in the assay on SF-268 CNS, 2.17 µM; in the assay on OVCAR-3 ovarian, 0.617 µM.
As for `Cc1ccc(C(CC(=O)c2ccccc2)C2C(=O)NC(=O)NC2=O)cc1` (stereo not given), the GI50 in the assay with CCRF-CEM leukemia, in the assay with UO-31 renal, in the assay on NCI-H23 lung, in the assay with OVCAR-8 ovarian, in the assay on HOP-92 NSCLC and with NCI/ADR-RES ovarian was more than 100 µM throughout. For the same compound, the GI50 in the assay on NCI-H522 lung, with RPMI-8226 leukemia, in the assay on SF-268 CNS and with OVCAR-3 ovarian was more than 100 µM throughout. The TGI in the assay with CCRF-CEM leukemia, with UO-31 renal, in the assay on NCI-H23 lung, in the assay with OVCAR-8 ovarian, in the assay with HOP-92 NSCLC and in the assay with NCI/ADR-RES ovarian was more than 100 µM each time. In addition, the TGI with NCI-H522 lung, in the assay on RPMI-8226 leukemia, with SF-268 CNS and with OVCAR-3 ovarian was more than 100 µM each time.
In the case of `COc1cc2ccccc2oc1=O`, the TGI with CCRF-CEM leukemia, in the assay on UO-31 renal, in the assay on NCI-H23 lung, with OVCAR-8 ovarian, with HOP-92 NSCLC and in the assay on NCI/ADR-RES ovarian was more than 100 µM in each case. Besides, the TGI with NCI-H522 lung, in the assay on RPMI-8226 leukemia, in the assay on SF-268 CNS and with OVCAR-3 ovarian was more than 100 µM in each case.
In the case of `Cc1cc(NCCN(C(C)C)C(C)C)nc(/N=C(\N)Nc2ccc(Cl)c(C(F)(F)F)c2)n1`, the GI50 with CCRF-CEM leukemia was 0.335 µM; in the assay on UO-31 renal, 0.201 µM; with NCI-H23 lung, 1.49 µM; with OVCAR-8 ovarian, 0.275 µM; with HOP-92 NSCLC, 0.163 µM; in the assay on NCI/ADR-RES ovarian it was 1.67 µM. Further, the GI50 in the assay on NCI-H522 lung is 0.206 µM; in the assay with RPMI-8226 leukemia it was 0.22 µM; in the assay with SF-268 CNS it was 0.67 µM; with OVCAR-3 ovarian it was 1.32 µM. For the same compound, the TGI with CCRF-CEM leukemia amounted to 1.47 µM; with UO-31 renal, 0.604 µM; in the assay with NCI-H23 lung, 3.08 µM; in the assay with OVCAR-8 ovarian, 0.812 µM; in the assay with HOP-92 NSCLC it was 1.01 µM; with NCI/ADR-RES ovarian, 3.45 µM. Also, the TGI in the assay on NCI-H522 lung is 0.47 µM; with RPMI-8226 leukemia, 0.662 µM; in the assay with SF-268 CNS, 1.76 µM; in the assay with OVCAR-3 ovarian, 2.77 µM.
Consider `O=CN/C=C/c1cccc(O)c1`, for which the TGI with CCRF-CEM leukemia was more than 100 µM; in the assay on UO-31 renal it was more than 83.2 µM; in the assay on NCI-H23 lung, 72.4 µM; in the assay on OVCAR-8 ovarian, more than 96.1 µM; in the assay with HOP-92 NSCLC, more than 97.1 µM; in the assay with NCI/ADR-RES ovarian, more than 100 µM. In addition, the TGI in the assay with NCI-H522 lung is 65.4 µM; in the assay with RPMI-8226 leukemia, more than 100 µM; with SF-268 CNS, more than 93.4 µM; in the assay on OVCAR-3 ovarian, more than 100 µM.
Take `CCN(Cc1ccc(F)cc1)c1ccc(CO)c(F)c1`: the GI50 with CCRF-CEM leukemia was 21.5 µM; in the assay with UO-31 renal, 8.67 µM; in the assay with NCI-H23 lung, 17.5 µM; in the assay on OVCAR-8 ovarian it was 16.2 µM; with HOP-92 NSCLC, 9.52 µM; in the assay on NCI/ADR-RES ovarian, 18 µM. The GI50 in the assay with NCI-H522 lung was 14.1 µM; with RPMI-8226 leukemia it was 7.13 µM; in the assay on SF-268 CNS, 24.8 µM; in the assay on OVCAR-3 ovarian it was 5.38 µM. Besides, the TGI in the assay with CCRF-CEM leukemia is more than 74.6 µM; with UO-31 renal it was 54.4 µM; in the assay with NCI-H23 lung, more than 94.6 µM; in the assay on OVCAR-8 ovarian, more than 84.5 µM; in the assay on HOP-92 NSCLC, 37.9 µM; in the assay with NCI/ADR-RES ovarian, 68.7 µM. The TGI with NCI-H522 lung is 35.8 µM; in the assay on RPMI-8226 leukemia, 33.7 µM; with SF-268 CNS, more than 92.3 µM; in the assay with OVCAR-3 ovarian, 18 µM.
